Assay results: PubChem BioAssay (NCI)
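Test compounds were applied to cells in 96-well plates for 48 hours at 5 doses. TGI marks complete inhibition of growth.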

What was measured:
Assay in all cases: NCI-60 cell line screen, 48 h
786-0 renal = tested on: 786-0 renal
A549 NSCLC = tested on: A549 NSCLC
ACHN renal = tested on: ACHN renal
CAKI-1 renal = tested on: CAKI-1 renal
CCRF-CEM leukemia = tested on: CCRF-CEM leukemia
COLO 205 colon = tested on: COLO 205 colon
DLD-1 colon = tested on: DLD-1 colon
DMS 114 small cell lung = tested on: DMS 114 small cell lung
DMS 273 small cell lung = tested on: DMS 273 small cell lung
HCC-2998 colon = tested on: HCC-2998 colon
HCT-116 colon = tested on: HCT-116 colon
HCT-15 colon = tested on: HCT-15 colon
HL-60(TB) leukemia = tested on: HL-60(TB) leukemia
HOP-62 NSCLC = tested on: HOP-62 NSCLC
HOP-92 NSCLC = tested on: HOP-92 NSCLC
HT29 colon = tested on: HT29 colon
IGROV1 ovarian = tested on: IGROV1 ovarian
K-562 leukemia = tested on: K-562 leukemia
KM12 colon = tested on: KM12 colon
KM20L2 colon = tested on: KM20L2 colon
LOX IMVI melanoma = tested on: LOX IMVI melanoma
LXFL 529 NSCLC = tested on: LXFL 529 NSCLC
M14 melanoma = tested on: M14 melanoma
M19-MEL melanoma = tested on: M19-MEL melanoma
MALME-3M melanoma = tested on: MALME-3M melanoma
MOLT-4 leukemia = tested on: MOLT-4 leukemia
NCI-H226 lung = tested on: NCI-H226 lung
NCI-H23 lung = tested on: NCI-H23 lung
NCI-H460 lung = tested on: NCI-H460 lung
NCI-H522 lung = tested on: NCI-H522 lung
OVCAR-3 ovarian = tested on: OVCAR-3 ovarian
OVCAR-4 ovarian = tested on: OVCAR-4 ovarian
OVCAR-5 ovarian = tested on: OVCAR-5 ovarian
OVCAR-8 ovarian = tested on: OVCAR-8 ovarian
RPMI-8226 leukemia = tested on: RPMI-8226 leukemia
RXF 393 renal = tested on: RXF 393 renal
RXF-631 renal = tested on: RXF-631 renal
SF-268 CNS = tested on: SF-268 CNS
SF-295 CNS = tested on: SF-295 CNS
SF-539 CNS = tested on: SF-539 CNS
SK-MEL-28 melanoma = tested on: SK-MEL-28 melanoma
SK-MEL-5 melanoma = tested on: SK-MEL-5 melanoma
SK-OV-3 ovarian = tested on: SK-OV-3 ovarian
SN12C renal = tested on: SN12C renal
SNB-19 CNS = tested on: SNB-19 CNS
SNB-75 CNS = tested on: SNB-75 CNS
SNB-78 CNS = tested on: SNB-78 CNS
SR leukemia = tested on: SR leukemia
SW-620 colon = tested on: SW-620 colon
U251 CNS = tested on: U251 CNS
UACC-257 melanoma = tested on: UACC-257 melanoma
UACC-62 melanoma = tested on: UACC-62 melanoma
UO-31 renal = tested on: UO-31 renal
XF 498 CNS = tested on: XF 498 CNS

Measured: TGI

COc1ccc(/C(=N\N=C(N)N)C(c2ccc(OC)cc2)C2OC(=O)c3ccccc32)cc1 (centres undefined)
> 100 µM: all assays above
